This passage reports viability, T/C and IC50 results from PubChem BioAssay AID1963839 (Molecular Pharmacology Branch, DTP, NCI, 2024).

This experiment deals with 817829-284-R-J1-PDC complex spheroid viability. Kind of experiment: Anticancer human tumor 817829-284-R-J1-PDC patient-derived colon adenocarcinoma cell line growth inhibition [POLQ]. Particulars: for viability, T/C: stronger effect = lower value. On the procedure:
Multicellular complex tumor spheroid response to Polymerase (POL) inhibitors (novobiocin, ART-558, RP6685) in combination with a variety of drugs and investigational agents in selected tumor cell lines
The POL inhibitors (novobiocin, ART-558, and RP6685) were evaluated both individually and in combination with standard of care and investigational anticancer small molecules within a complex spheroid model of solid tumors. . Complex spheroids include a stromal component modeled by human endothelial cells (HUVEC) and fibroblasts modeled by human mesenchymal stem cells (MSCs). The concentration ranges selected for each drug and investigational agent were based upon clinically achievable concentrations if the clinical Cmax of the agent was known.
Compounds. The drugs and investigational agents: novobiocin (NSC847541), ART-558 (NSC835418), RP-6685 (NSC848927), peposertib (NSC802822), ceralasertib (NSC780249), elimusertib (NSC800525), camonsertib (NSC841442), AZD-1390 (NSC803789), olaparib (NSC753686), talazoparib (NSC767125), rucaparib (NSC756644), sotorasib (NSC818433), MRTX-1133 (NSC836407), SN-38 (NSC673596), topotecan (NSC609699), epotoside (NSC141540), doxorubicin (NSC123127), gemcitabine (NSC613327), 5-fluorouracil (NSC19893), paclitaxel (NSC125973), vemurafenib (NSC761431), MSA-2 (NSC828583), SN-011 (NSC837082), adavosertib (NSC754352), prexasertib (NSC758257), carboplatin (NSC241240) and oxaliplatin (NSC266046), were obtained from the National Cancer Institute (NCI) Developmental Therapeutics Program Chemical Repository (21). The FDA-approved anticancer drug set is available from the Developmental Therapeutics Program at https://dtp.cancer.gov/organization/dscb/obtaining/. […] The stock solutions were prepared in dimethyl sulfoxide (DMSO, Sigma-Aldrich, St. Louis, MO, cat. D2650), except for the platinum compounds which were prepared in saline (Quality Biological, Gaithersburg, MD, cat. 114-055-101), at 800-fold the tested concentration and stored at -70 degrees C prior to their use. All drugs and investigational agents were tested over a range starting from a high concentration at or near the clinical Cmax and decreasing in half-log increments. If the clinical Cmax for an agent had not been determined, the highest concentration tested was 10 microM, except for SN-38, which was tested at a high concentration of 1 microM.
Cell Culture. All cells were maintained in an incubator at 37 degrees C and 5% CO2 with 95% humidity. The PDC lines were cultured according to standard operating procedures established by the NCI PDMR (https://pdmr.cancer.gov). Table 3 of the manuscript, lists the cell lines along with the number of the three cell types plated to form the mct-spheroids and media for tumor cell growth. After thawing, all PDC lines, except 997537-175-T-J1-PDC and 415267-285-R-J2-PDC, were cultured in Matrigel-coated flasks prepared with a working solution of 1X Ham's F-12 nutrient mix, without supplementation (Thermo Fisher Scientific, cat. 11765054), 100 U/mL penicillin-streptomycin (Thermo Fisher Scientific, cat. 15140122), and 2.5% Matrigel (Corning Inc., Corning, NY, cat. 354248) for the first three passages. The two PDC lines 997537-175-T-J1-PDC and 415267-285-R-J2-PDC were cultured on uncoated flasks. The 857933-349-R-J2-PDC line was cultured in 6C/Colon 1B media containing advanced DMEM/F-12 (Thermo Fisher Scientific, cat. 12634028), 10 mM HEPES (Thermo Fisher Scientific, cat. 15630080), 1X GlutaMAX supplement (Thermo Fisher Scientific, cat. 35050061), 0.1 mg/mL primocin (InvivoGen, San Diego, CA, cat. ant-pm-2), 10% defined fetal bovine serum, heat inactivated (HyClone Laboratories Inc., Logan, UT, cat. SH30070.03HI), 50% L-WRN conditioned media (ATCC, cat. CRL-3276), 1.25 mM N-Acetyl-L-cysteine (Sigma-Aldrich, cat. A9165), 10 mM nicotinamide (Sigma-Aldrich, cat. N0636), 1X B-27 supplement (Thermo Fisher Scientific, cat. 17504044), 1X N-2 supplement (Thermo Fisher Scientific, cat. […]

[1] abbreviates: compound alone, run of 11/27/2023.
Setting [2] is: compound alone, run of 12/05/2023.
Where [3] appears, read: curve of first compound, second compound 0.0316 µM.
Setting [4] is: curve of first compound, second compound 0.1 µM.
The mark [5] stands for this setting: curve of first compound, second compound 0.316 µM.
The mark [6] stands for this setting: curve of first compound, second compound 1 µM.
[7] abbreviates: curve of first compound, second compound 3.16 µM.
[8] abbreviates: curve of first compound, second compound 10 µM.
[9] abbreviates: second compound 0.0316 µM, first compound 0.0316 µM.
[10] abbreviates: second compound 0.0316 µM, first compound 0.1 µM.
[11] abbreviates: second compound 0.0316 µM, first compound 0.316 µM.
[12] abbreviates: second compound 0.0316 µM, first compound 1 µM.
The mark [13] stands for this setting: second compound 0.1 µM, first compound 0.0316 µM.
[14] abbreviates: second compound 0.1 µM, first compound 0.1 µM.
Setting [15] is: second compound 0.1 µM, first compound 0.316 µM.
[16] abbreviates: second compound 0.1 µM, first compound 1 µM.
The mark [17] stands for this setting: second compound 0.316 µM, first compound 0.0316 µM.
Setting [18] is: second compound 0.316 µM, first compound 0.1 µM.
The mark [19] stands for this setting: second compound 0.316 µM, first compound 0.316 µM.
[20] abbreviates: second compound 0.316 µM, first compound 1 µM.
[21] abbreviates: second compound 1 µM, first compound 0.0316 µM.
Where [22] appears, read: second compound 1 µM, first compound 0.1 µM.
[23] abbreviates: second compound 1 µM, first compound 0.316 µM.
[24] abbreviates: second compound 1 µM, first compound 1 µM.
Setting [25] is: second compound 3.16 µM, first compound 0.0316 µM.
The mark [26] stands for this setting: second compound 3.16 µM, first compound 0.1 µM.
Setting [27] is: second compound 3.16 µM, first compound 0.316 µM.
Setting [28] is: second compound 3.16 µM, first compound 1 µM.
The mark [29] stands for this setting: second compound 10 µM, first compound 0.0316 µM.
Setting [30] is: second compound 10 µM, first compound 0.1 µM.
The mark [31] stands for this setting: second compound 10 µM, first compound 0.316 µM.
The mark [32] stands for this setting: second compound 10 µM, first compound 1 µM.

Values joined by “and” are separate entries in the source; they are usually repeats but may differ in a detail not shown here. Equal entries are not always repeated.
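Note: spheroids exposed to compounds for 7 days.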

`CC1COCCN1c1cc(C2(O)CC3CCC(C2)O3)c2cnn(-c3ccn[nH]3)c2n1` (centres undefined): the viability, T/C (as a rule, the result in the treated group divided by that in the control group, in per cent) is, setting by setting: (compound 0.0316 µM) 25.2% and 23.3% and 30.1%; (compound 0.1 µM) 8.33% and 10.7% and 8.37%; (compound 0.316 µM) 4.72% and 4.82% and 4.13%; (compound 1 µM) 3.5% and 3.16% and 3.44%; (compound 3.16 µM) 3.23% and 3.58% and 4.19%; (compound 10 µM) 2.41% and 1.97% and 3.04%. The IC50 – broadly, the point on the concentration scale where inhibition reaches its midpoint – (curve of compound) is under 0.0316 µM.

Consider `COC1C(OC(N)=O)C(O)C(Oc2ccc3c(O)c(NC(=O)c4ccc(O)c(CC=C(C)C)c4)c(=O)oc3c2C)OC1(C)C` (centres undefined), for which the IC50 under setting [1] was over 10 µM.

Consider `Cc1cccc(N(C)C(=O)C2C(O)CCN2c2nc(C)cc(C(F)(F)F)c2C#N)c1` (centres undefined), for which, for the setting “compound 10 µM”, the viability, T/C was 99.5% [middle of 13 runs]. The IC50 under setting [1] was over 10 µM and the IC50 under setting [2] is over 10 µM.

As for `Nc1ccc(C#CCN(C(=O)Cc2ncc(C(F)(F)F)cc2C(F)(F)F)c2ccc(F)cc2)nn1`, the viability, T/C is 97.9% [middle of 13 runs] (compound 3.16 µM) and 99.7% [middle of 13 runs] (compound 10 µM). For the same compound, the IC50 under setting [2] is over 10 µM.

As for `O=C(c1cc(Cc2n[nH]c(=O)c3ccccc23)ccc1F)N1CCN(C(=O)C2CC2)CC1`, the viability, T/C (compound 10 µM) is 22.3% and 7.71% and 32.7%.

As for `C=CC(=O)N1CCN(c2nc(=O)n(-c3c(C)ccnc3C(C)C)c3nc(-c4c(O)cccc4F)c(F)cc23)C(C)C1` (centres undefined) + COC1C(OC(N)=O)C(O)C(Oc2ccc3c(O)c(NC(=O)c4ccc(O)c(CC=C(C)C)c4)c(=O)oc3c2C)OC1(C)C, the IC50 runs as follows: under setting [3], over 10 µM; under setting [4], over 10 µM; under setting [5], over 10 µM; under setting [6], over 10 µM; under setting [7], over 10 µM; under setting [8], over 10 µM. Also, the viability, T/C was 87.6% under setting [9]; 125% under setting [10]; 89.3% under setting [11]; 99.9% under setting [12]; 121% (second compound 0.0316 µM, first compound 3.16 µM); 67.3% (second compound 0.0316 µM, first compound 10 µM). Moreover, the viability, T/C was 124% under setting [13]; 100% under setting [14]; 133% under setting [15]; 83.3% under setting [16]; 118% (second compound 0.1 µM, first compound 3.16 µM); 76.2% (second compound 0.1 µM, first compound 10 µM). For the same compound, the viability, T/C is, setting by setting: under setting [17], 115%; under setting [18], 127%; under setting [19], 104%; under setting [20], 97.4%; (second compound 0.316 µM, first compound 3.16 µM) 95.7%; (second compound 0.316 µM, first compound 10 µM) 59.6%. Moreover, the viability, T/C is, setting by setting: under setting [21], 132%; under setting [22], 104%; under setting [23], 77.8%; under setting [24], 140%; (second compound 1 µM, first compound 3.16 µM) 89.3%; (second compound 1 µM, first compound 10 µM) 51.2%. Also, the viability, T/C by setting is: under setting [25], 102%; under setting [26], 108%; under setting [27], 123%; under setting [28], 97%; (second compound 3.16 µM, first compound 3.16 µM) 80.4%; (second compound 3.16 µM, first compound 10 µM) 72.2%. Moreover, the viability, T/C by setting is: under setting [29], 78.8%; under setting [30], 96.8%; under setting [31], 80.7%; under setting [32], 98.2%; (second compound 10 µM, first compound 3.16 µM) 107%; (second compound 10 µM, first compound 10 µM) 57.3%.

Regarding `COc1cccc(OCCCN)c1-c1cc(Nc2cnc(C#N)cn2)n[nH]1` + COC1C(OC(N)=O)C(O)C(Oc2ccc3c(O)c(NC(=O)c4ccc(O)c(CC=C(C)C)c4)c(=O)oc3c2C)OC1(C)C, the IC50 reads like this: under setting [3], under 0.00316 µM; under setting [4], under 0.00316 µM; under setting [5], under 0.00316 µM; under setting [6], under 0.00316 µM; under setting [7], under 0.00316 µM; under setting [8], under 0.00316 µM. Moreover, the viability, T/C was 29.9% (second compound 0.0316 µM, first compound 0.00316 µM); 8.3% (second compound 0.0316 µM, first compound 0.01 µM); 5.67% under setting [9]; 5.85% under setting [10]; 4.68% under setting [11]; 3.39% under setting [12]. In addition, the viability, T/C was 26% (second compound 0.1 µM, first compound 0.00316 µM); 11.2% (second compound 0.1 µM, first compound 0.01 µM); 6.67% under setting [13]; 5.76% under setting [14]; 5.35% under setting [15]; 3.07% under setting [16]. In addition, the viability, T/C is, setting by setting: (second compound 0.316 µM, first compound 0.00316 µM) 29.5%; (second compound 0.316 µM, first compound 0.01 µM) 8.79%; under setting [17], 6.28%; under setting [18], 5.55%; under setting [19], 4.77%; under setting [20], 3.42%. The viability, T/C runs as follows: (second compound 1 µM, first compound 0.00316 µM) 39.1%; (second compound 1 µM, first compound 0.01 µM) 8.54%; under setting [21], 6.62%; under setting [22], 4.99%; under setting [23], 4.97%; under setting [24], 3.65%. Moreover, the viability, T/C reads like this: (second compound 3.16 µM, first compound 0.00316 µM) 44.4%; (second compound 3.16 µM, first compound 0.01 µM) 8.05%; under setting [25], 5.78%; under setting [26], 4.98%; under setting [27], 4.52%; under setting [28], 4.11%. In addition, the viability, T/C was 26.2% (second compound 10 µM, first compound 0.00316 µM); 8.47% (second compound 10 µM, first compound 0.01 µM); 6.63% under setting [29]; 5.63% under setting [30]; 4.76% under setting [31]; 4.08% under setting [32].
